This is an account of results in patent publication US20260109690A1, “HDAC6 INHIBITORS AND METHOD OF THEIR USE” (Baerenkraft Therapeutics, LLC., priority 2024, published 2026).

For orientation: MRT means a mean duration of stay, worked out from the concentration-time curve. Usually half-life stands for how long it takes for the measured level to halve. High values mean slow decline, low ones rapid decline. As a reminder, the Tmax is the time from dosing to the highest level. By bioavailability is commonly meant dose-corrected exposure relative to a reference, in per cent. In general, AUC(0-inf) refers to the area under the concentration-time curve extrapolated to infinity. By AUC(0-t) is commonly meant exposure summed from dosing to a finite time, without extrapolation to infinity. A low value points to less exposure. One may read the Cmax as the highest concentration seen after dosing. Broadly, the IC50 is the concentration at which inhibition is half-maximal. High values mean a need for much substance, low ones inhibition by little substance.

One data set concerns Tg2576 AD Disease Mice. The data set is described as follows: Tg2576 study: elevated plus maze. In kind it is in vivo. The settings on record: for Elevated Plus Maze time spent in Closed arms / Elevated Plus Maze time spent in Open arms: G3 Tg2576 mice. On the procedure:
Mice were weighed and randomized into groups. All the test formulations were freshly administered to respective animals of each group as per body weight. Basal behavior of the animals was recorded and analyzed in open field, Y-Maze, and EPM. Post basal behavior, animals were treated with compound I-16 for the duration of 3 months (i.e., from 6 months until 9 months). During the treatment duration, animals were subjected to different behavioral tests such as OFT, Y-maze, and EPM at 7, 8 and 9 months. At the end of experiments (i.e., at 9 months) animals were subjected to Morris water maze test.
Animals were subjected to elevated plus maze to evaluate anxiety-like behavior. Animals were placed in the centre of the arena with two open and two closed arms facing towards closed arms and allowed to explore the arena for a duration of 5 minutes. Animal behavior was video recorded using overhead video recording camera. Total time spent in the closed and open arms were quantified using automated animal tracking software Ethovision XT.

Data set [1] is described as follows: Oral bioavailability and brain/CSF uptake study of compound I-8. Format: in vivo, male Swiss albino mice. On the procedure: Compound I-8 was evaluated for bioavailability, pharmacokinetics and brain/csf to plasma distribution in mouse plasma following oral and intravenous administration of compound I-8 in male Swiss albino mouse.
A total of 24 male Swiss albino mouse were allotted for the study, Animals were allotted to 2 groups containing 12 mice/group, on day of dosing all the animals were fasted 3 hours before dosing. The test formulation was administered as a single dose by intravenous and oral route via tail vein and oral gavage needle at a dose of 1 and 5 mg/kg with a dose volume of 5 and 10 mL/kg, respectively.
Approximately 0.1 mL of blood sample from each animal was collected via retro orbital at predetermined time points (3 animals/timepoint) in pre-labeled Eppendorf tubes containing anticoagulant. After blood collection at 2 h, 4 h and 6 h, CSF and whole brain was withdrawn, and brain tissue was homogenized as a terminal sampling. Blood samples were centrifuged at 10000 rpm for 5 min under refrigeration (2-4° C.) within 0.5 h to obtain plasma. The separated plasma samples were collected in pre labeled tubes within 60 min of separation and stored at −20° C. up to 24 h. Post 24 h sample collection, all plasma samples were transferred to deep freezer custodian to store below or at −70° C. until shipment.
Brain tissues were blotted and dried and then transferred to 15 mL falcon tubes. Initially all tissue samples were stored at −20±3° C. Later all brain tissue samples were homogenized with PBS at 1:4 ratio and the Brain homogenate was transferred to deep freezer (−70±10° C.) and stored until bioanalysis.
Mouse plasma, CSF and Brain homogenate concentrations were analyzed to quantify compound I-8 using a fit-for purpose LC-MS/MS method with LLOQ of 0.98 ng/mL. The PK parameters were evaluated using Phoenix WinNonlin® Ent-Version 8.3 by non-compartmental analysis.

The next data set concerns the target HDAC5 (Homo sapiens, UniProt Q9UQL6). The data set is described as follows: HDAC selectivity panel: HDAC5. Format: biochemical.
The subject of data set [2] is B6SJL.SOD1-G93A transgenic mouse model of amyotrophic lateral sclerosis. The data set is described as follows: Pre-clinical ALS mouse model efficacy: motor behavior. Format: in vivo, mice. The settings on record: both doses (G3 and G4), week 10 until week 16. On the procedure:
Effect of test compound I-8 in Cyagen, male B6SJL.SOD1-G93A 9-week-old transgenic mouse model of amyotrophic lateral sclerosis
Compound I-8 effect was evaluated in Cyagen, Male B6SJL.SOD1-G93A 9-week-old mice, an animal model of amyotrophic lateral sclerosis.

For the next data set, the target named is HDAC2 (Homo sapiens, UniProt Q92769). The data set is described as follows: HDAC selectivity panel: HDAC2. In kind it is biochemical.
HDAC2, sequence (Q92769 whole entry, species assumed): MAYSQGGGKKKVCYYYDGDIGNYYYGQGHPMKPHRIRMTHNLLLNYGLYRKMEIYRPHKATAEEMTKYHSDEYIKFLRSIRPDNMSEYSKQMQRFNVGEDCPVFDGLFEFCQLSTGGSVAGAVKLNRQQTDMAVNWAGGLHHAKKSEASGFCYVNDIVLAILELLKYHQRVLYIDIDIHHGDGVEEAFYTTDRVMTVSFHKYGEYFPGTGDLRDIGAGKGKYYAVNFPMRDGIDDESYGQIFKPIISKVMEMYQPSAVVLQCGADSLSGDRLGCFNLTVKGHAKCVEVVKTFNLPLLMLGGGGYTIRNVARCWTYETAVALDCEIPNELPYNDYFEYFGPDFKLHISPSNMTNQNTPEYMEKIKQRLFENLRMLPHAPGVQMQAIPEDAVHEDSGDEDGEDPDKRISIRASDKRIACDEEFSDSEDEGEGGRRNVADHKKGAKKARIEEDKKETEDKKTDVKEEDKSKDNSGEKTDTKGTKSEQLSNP
The target in a further data set is HDAC9 (Homo sapiens, UniProt Q9UKV0). The data set is described as follows: HDAC selectivity panel: HDAC9. In kind it is biochemical.
HDAC9, sequence (Q9UKV0 whole entry, species assumed): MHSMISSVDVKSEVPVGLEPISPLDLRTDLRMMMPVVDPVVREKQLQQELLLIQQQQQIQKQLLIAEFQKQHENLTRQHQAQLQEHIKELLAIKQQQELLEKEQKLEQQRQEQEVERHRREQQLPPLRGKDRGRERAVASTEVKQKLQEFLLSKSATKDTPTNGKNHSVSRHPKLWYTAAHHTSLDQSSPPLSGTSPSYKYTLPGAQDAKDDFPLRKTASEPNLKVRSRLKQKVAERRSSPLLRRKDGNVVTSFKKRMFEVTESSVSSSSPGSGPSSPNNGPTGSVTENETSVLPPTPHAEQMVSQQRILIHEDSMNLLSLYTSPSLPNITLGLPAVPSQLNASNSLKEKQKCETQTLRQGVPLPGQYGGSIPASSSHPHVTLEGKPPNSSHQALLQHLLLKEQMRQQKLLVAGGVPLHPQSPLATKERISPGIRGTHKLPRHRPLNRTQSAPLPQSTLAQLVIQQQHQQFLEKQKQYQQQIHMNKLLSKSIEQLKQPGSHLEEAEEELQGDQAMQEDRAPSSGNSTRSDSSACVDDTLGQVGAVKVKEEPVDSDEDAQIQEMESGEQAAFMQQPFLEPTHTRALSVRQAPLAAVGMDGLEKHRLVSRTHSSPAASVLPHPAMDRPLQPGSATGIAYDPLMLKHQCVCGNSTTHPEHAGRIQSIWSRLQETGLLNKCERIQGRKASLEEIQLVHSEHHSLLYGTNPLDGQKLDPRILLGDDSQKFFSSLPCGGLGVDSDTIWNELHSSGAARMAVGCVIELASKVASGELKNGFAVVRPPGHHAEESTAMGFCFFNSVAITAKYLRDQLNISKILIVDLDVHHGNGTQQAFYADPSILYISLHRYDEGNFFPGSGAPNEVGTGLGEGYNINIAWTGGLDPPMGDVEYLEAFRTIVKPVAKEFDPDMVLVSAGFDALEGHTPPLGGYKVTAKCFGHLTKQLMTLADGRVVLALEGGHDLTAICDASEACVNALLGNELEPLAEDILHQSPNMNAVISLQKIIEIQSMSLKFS
Data set [3] relates to acetyl-α-tubulin in SH-SY5Y neuroblastoma cells. The data set is described as follows: ICC dose response of acetylated alpha-tubulin in SH-SY5Y neuroblastoma cells. Format: cell-based. The following applies: 24-hour treatment. On the procedure:
Cell Seeding: Seeded at 2,000 cells/well in 384-well plates 24-hours prior to compound treatment
Compound Treatment: 24-hour
HDAC6 inhibitor compounds tested (1 control and 6 experimental)
9-point dose-response curves for all compounds, starting at 30 μM with 3-fold serial dilutions
4 technical replicate wells per condition tested
Cells were seeded in 90 μL media. 10 μL of 10× compound solutions added to 90 μL media for 24-hours
Fixation: 4% PFA for 15 minutes (after removing all media and washing with DPBS+0.1% Tween-20)
Permeabilization: 0.1% Triton X-100 for 20 minutes
Primary antibody: acetyl-α-tubulin (Lys40/D20G3; Cell Signaling Technologies, #5335S) 1:1000 dilution in DPBS+5% goat serum+0.1% Tween-20, 1 hour at room temp on orbital shaker
Secondary antibody: Goat anti-Rabbit IgG (H+L) Highly Cross-Adsorbed Secondary Antibody, Alexa Fluor™ Plus 488, Catalog #A32731, 1:1000 dilution+Hoechst 33342, 1:10,000 dilution in DPBS+5% goat serum+0.1% Tween-20, 1 hour at room temp on orbital shaker
High-content imaging system: Image Xpress Micro Confocal from Molecular Devices […]
Integrated fluorescence intensity of acetyl-α-tubulin was calculated using an automated image-analysis algorithm in Meta Xpress software
Average intensity per cell was calculated by dividing the integrated fluorescence intensity by the number of nuclei. […]

The mark [4] stands for this setting: 50 mg/kg then 80 mg/kg from day 36 p.o., 8th months.
Setting [5] is: 50 mg/kg then 80 mg/kg from day 36 p.o., 9th months.
The mark [6] stands for this setting: 6th months (Basal, before treatment).
The mark [7] stands for this setting: male, Swiss albino, mouse, plasma, G1, intravenous 1 mg/kg.
Where [8] appears, read: male, Swiss albino, mouse, plasma, G2, oral 5 mg/kg.
Where [9] appears, read: male, Swiss albino, G1, intravenous 1 mg/kg, mouse plasma.
Setting [10] is: male, Swiss albino, G2, oral 5 mg/kg, mouse plasma.

Where two headings read alike, the source gives them in different places.

HDAC5, sequence (Q9UQL6 whole entry, species assumed): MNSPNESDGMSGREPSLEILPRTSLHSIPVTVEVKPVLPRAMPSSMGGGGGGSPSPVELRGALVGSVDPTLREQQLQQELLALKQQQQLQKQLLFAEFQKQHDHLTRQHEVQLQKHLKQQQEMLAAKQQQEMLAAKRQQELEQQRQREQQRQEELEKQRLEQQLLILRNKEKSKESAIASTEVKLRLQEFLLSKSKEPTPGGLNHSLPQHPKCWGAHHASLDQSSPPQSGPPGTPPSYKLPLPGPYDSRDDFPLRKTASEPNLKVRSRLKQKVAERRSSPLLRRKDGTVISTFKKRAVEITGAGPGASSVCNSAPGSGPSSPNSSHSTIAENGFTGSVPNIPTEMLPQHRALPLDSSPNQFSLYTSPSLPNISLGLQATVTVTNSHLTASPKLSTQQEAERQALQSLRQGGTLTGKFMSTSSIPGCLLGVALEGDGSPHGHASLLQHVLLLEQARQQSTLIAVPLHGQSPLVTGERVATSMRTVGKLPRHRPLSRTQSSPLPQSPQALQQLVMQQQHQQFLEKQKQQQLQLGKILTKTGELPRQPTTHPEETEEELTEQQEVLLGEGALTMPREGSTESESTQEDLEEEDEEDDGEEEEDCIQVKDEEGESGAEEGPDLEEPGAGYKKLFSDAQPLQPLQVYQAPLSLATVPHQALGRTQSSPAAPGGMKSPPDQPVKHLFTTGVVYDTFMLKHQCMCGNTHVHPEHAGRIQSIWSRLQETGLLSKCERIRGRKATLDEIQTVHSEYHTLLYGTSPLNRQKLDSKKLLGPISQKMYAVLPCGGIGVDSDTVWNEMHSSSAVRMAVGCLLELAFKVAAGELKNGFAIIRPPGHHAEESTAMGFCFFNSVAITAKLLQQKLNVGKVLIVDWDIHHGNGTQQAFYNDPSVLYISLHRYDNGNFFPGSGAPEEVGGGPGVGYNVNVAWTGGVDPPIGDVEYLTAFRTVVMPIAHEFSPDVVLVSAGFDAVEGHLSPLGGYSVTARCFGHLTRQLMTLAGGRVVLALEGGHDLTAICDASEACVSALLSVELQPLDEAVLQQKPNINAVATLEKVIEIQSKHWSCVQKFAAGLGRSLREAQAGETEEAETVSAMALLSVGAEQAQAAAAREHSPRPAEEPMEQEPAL

For the compound `C[C@@H]1CN(Cc2ccc(Nc3nccc(-c4ccc(C(=O)NO)cc4)n3)cc2F)CCO1` [Compound I-16, (R)-4-(2-((3-fluoro-4-((2-methylmorpholino)methyl)phenyl)amino)pyrimidin-4-yl)-N-hydroxybenzamide], the “Elevated Plus Maze: time spent in open and closed arms compared to G2 (Tg2576 + vehicle)” value in the data set on Tg2576 AD Disease Mice (G3 Tg2576 AD disease mice, 50 mg/kg) is “did not show any significant difference”. Also, the “Elevated Plus Maze time spent in Closed arms” value with Tg2576 AD Disease Mice (50 mg/kg p.o., 7th months) amounted to 165.48 ± 28.89; in the data set with Tg2576 AD Disease Mice (setting [4]), 245.27 ± 12.41; with Tg2576 AD Disease Mice (setting [5]) it was 241.46 ± 11.16; with Tg2576 AD Disease Mice (setting [6]), 110.86 ± 16.69. The “Elevated Plus Maze time spent in Open arms” value in the data set on Tg2576 AD Disease Mice (50 mg/kg p.o., 7th months) is reported as 73.82 ± 27.58; in the data set with Tg2576 AD Disease Mice (setting [4]), 54.73 ± 12.41; in the data set on Tg2576 AD Disease Mice (setting [5]), 58.55 ± 11.16; with Tg2576 AD Disease Mice (setting [6]), 82.94 ± 14.23.

In the case of `CC1CN(Cc2ccc(Nc3nccc(-c4ccc(C(=O)NO)cc4)n3)cc2F)CCO1` (racemic) [Compound I-8, 4-(2-((3-fluoro-4-((2-methylmorpholino)methyl)phenyl)amino)pyrimidin-4-yl)-N-hydroxybenzamide], the “Steady state and central compartment volume of distribution” value in data set [1] (intravenous 1 mg/kg) is “very high”. In addition, the clearance in data set [1] (male, Swiss albino, mouse, plasma, iv, 1 mg/kg, G1, intravenous 1 mg/kg) was roughly 19.7 L/h/kg. In data set [1] (male, Swiss albino, mouse, plasma, iv, 1 mg/kg, G1, intravenous 1 mg/kg, read-out: Vd), the Vd is 171 L/kg. Moreover, the Vd in data set [1] (male, Swiss albino, mouse, plasma, iv, 1 mg/kg, G1, intravenous 1 mg/kg, read-out: Vss) was 188 L/kg. For the same compound, in data set [1] (setting [7]), the mean residence time MRT was 3.28 h and the half-life is 6.03 h. Moreover, in data set [1] (setting [8]), the MRT turned out to be 4.75 h and the Tmax was found to be 8 h. In addition, the bioavailability in data set [1] (male, Swiss albino, mouse, plasma, G2, oral 5 mg/kg vs intravenous 1 mg/kg, read-out: % F (oral bioavailability)) was found to be 53%. In data set [1] (setting [9]), this compound yielded an AUC(0-inf) of 0.0508 µg·h/mL, an AUC(0-t) of 0.0271 µg·h/mL and a C0 of 0.0273 µg/mL. In data set [1] (setting [10]), this compound returned an AUC(0-t) of 0.0723 µg·h/mL and a Cmax of 0.0183 µg/mL. Moreover, in data set [1] (oral 5 mg/kg), the “lag phase in absorption” value is “no lag phase in absorption” and the systemic availability entry is “moderate to high systemic availability”. The IC50 on HDAC5 was determined as 7.77 µM. Moreover, the “motor behavior compared to disease control group” value in data set [2] is given as “Improvement was observed in motor behavior”. This compound also returned an IC50 on HDAC2 of 2.8 µM. On HDAC9, this compound came in with an IC50 of 22 µM. In data set [3], the “increase in acetyl-α-tubulin (ICC)” value was “induce acetylation of α-tubulin in SH-SY5Y neuroblastoma cells in a dose-dependent manner”.
